Reference: EP1212309B1, “CASPASE INHIBITOR” (LG Chem Investment, Ltd., priority 1999, dated 2001)

Tests used:
[1] = test system: hepatocytes in ConA-treated mouse liver; test: Con A-treated mouse liver: histologic examination and detection of apoptosis (H&E, TUNEL); type: in vivo; conditions: ConA-treated mice, compound 33 4, 20, 100mg/kg
Method: The present inventors estimated the prevalence of apoptotic cells in the mouse liver to certify the apoptosis-blocking effect of the compound of the present invention specifically in hepatocytes. Mice were treated ConA in the presence or absence of various dosages of compound 33 [A and G: ConA and vehicle treatment, B and H: ConA and compound 33 4mg/kg treatment, C and I: ConA and compound 33 20mg/kg treatment, D and J: ConA and compound 33 100mg/kg treatment] to prepare frozen liver sections. Also, mice were treated with PBS and vehicle (E and K), or PBS and compound 33 100mg/kg (F and L) to prepare frozen liver sections. Freshly excised mouse liver was immediately immersed in 25 % sucrose solution at 4 °C for overnight, then frozen in liquid nitrogen, and cryosectioned into 4 µm.
For histological examination, liver sections were fixed in 1% buffered paraformaldehyde and stained with hematoxilin & eosin (Fig. 6A to F). To detect apoptotic cells in liver, frozen liver was stained using an ApopTag in situ apoptosis peroxidase detection kit (terminal deoxynucleotidyl transferase-mediated dUTP nick end labeling: TUNEL assay) (Oncor, Gaithersburg, MD) and DAKO liquid DAB (DAKO, Carpinteria, CA)(Fig. 6G to L). Staining was conducted according to manufacturer's instruction. After completion of staining, the samples were observed under an optical microscope. […]

[2] = test system: Con A-induced acute hapatitis mice; test: Con A-induced acute hepatitis in mice: plasma aminotransferase activity; type: in vivo, Balb/c mice
Method: Female 6-week-old Balb/c mice (Charles River Laboratory, Osaka, Japan) were kept at 22 °C and 55% relative humidity in a 12-h day/night rhythm with free access to food and water. Con A was dissolved in pyrogen-free saline to a concentration of 2.5 mg/ml and was injected via the tail vein in an amount of 20mg/kg based on Con A. The animals were i.p. injected twice with compound 33 dissolved into a vehicle which consists of olive oil and 10% DMSO, or a vehicle alone, at 1 hr before and 4h after Con A injection. Animals were sacrificed by cervical dislocation at 24 hrs after Con A injection to obtain liver and blood samples.
Blood samples obtained at step 1 were collected at 24h after Con A injection. Plasma AST and ALT activity were measured using Autokit (Youngdong Pharmaceutical Co., Seoul, Korea) following manufacturer's instruction.

[3] = test system: Recombinant human caspase; test: Inhibition of caspase activity in cell free system (chromogenic pNA substrates); type: biochemical; conditions: 100 µM compound, caspase-1, -2, -3, -4, -6, -7, -8 and -9, 200 µM chromogenic substrate, 37°C
Method: The pharmacological efficacy of the compound according to the present invention was evaluated by the following experiments. Con A was purchased from Boehringer Mannheim GmbH (Mannheim, Germany). Peptide-based substrates of caspases (Ac-YVAD-pNA for caspase-1, Ac-VDVAD for caspase-2, Ac-DEVD-pNA for caspase-3, 7, 8, and 9, Ac-LEVD-pNA for caspase-4, and Ac-VEID-pNA for caspase-6) and peptide-based caspase inhibitors (Ac-DEVD-fmk, z-VAD-CHO) were purchased from Alexis Co. (San Diego, CA). Ac-DEVD-CHO and z-DEVD-cmk were purchased from Bachem; Anti Fas antibody was purchased from Oncor (Cat#A8050); WI38 cell was available from ATCC; IFN-gamma was purchased from LG Pharmaceuticals (Korea). All cell culture-media and supplements were purchased from Gibco BRL (Tsuen Wan, Hong Kong) unless mentioned otherwise. […]
Caspase activity was tested by measuring proteolytic cleavage of peptide-based chromogenic substrate by each enzyme. […] Aliquots of the enzyme (2 µℓ containing catalytic activity of 0.2 absorbance at 405 nm/h) were mixed with 150 µℓ of 200 µM chromogenic substrate in the presence or absence of 100 µM compound 33 in 96-well plates. […] The absorbance of enzymatically released pNA was measured discontinuously at 405 nm in a microplate reader for I hr. The caspase activity was calculated from initial velocity (mean± SE)(n=4, in which n represents the number of repeated experiment).

[4] = test system: WI38 cells; test: Protection from IFNγ and anti-Fas antibody-induced apoptosis (XTT); type: cell-based, human; conditions: 100% when Fas antibody was not treated; for viability ratio: WI38 cells
Method: WI38 cells (human embryonal lung fibroblast) were grown in a medium containing DMEM-10% FBS within 10cm diameter dishes until reaching at confluency. The cells were seeded into a 24-well plate at day 1 and incubated overnight while the volume of medium was maintained to 400µℓ. […] At day 3, each 100 µℓ of test compound was added to the cells after diluting the 10mM stock compound in DMSO to final concentrations of 50, 10, 2, and 0.4 µ M, respectively. The cells were incubated for 2 hrs in order for allowing the compound to enter into the cells and then treated with 40ng/well of anti-Fas antibody(apoptosis was induced 2 hrs after antibody was treated and the incubation was continued overnight). The control was not treated with Fas antibody. […] After coloring, 100-200µℓ of the supernatant was transferred to a 96-well plate and the absorbance at 490 nm was read with ELISA plate reader. For the blank, XTT solution was added to the well containing the medium only. Plotting was determined by comparing with the control group (100% when Fas antibody was not treated).

[5] = test system: PARP cleavage; test: Con A-treated mouse liver: Western blotting of PARP cleavage; type: in vivo; conditions: liver lysate of Con A-treated mice, various doses, Western blot
Method: In this experiment, the cleavage of PARP was identified by the appearance on Western blot analysis of an 85 kDa-cleavage product in hepatic cell lysate obtained from mice treated with Con A and various doses of the compound of formula (I).
Freshly harvested livers treated with Con A or PBS together with various doses of compound 33 were rinsed in cold PBS and homogenized into three volumes per weight of cold PBS containing 1% Nonidet P-40, 0.1 % SDS, 1 mM PMSF, and protease inhibitor cocktail tablet Complete™ (Boehnger Mannheim, used according to manufacturer's instruction). The homogenates were incubated on ice for 30 min. Samples were then centrifuged at 16,000 x g for 30 min at 4°C. Supernatants were transferred to fresh tubes and centrifuged for additional 30 min. Harvested lysates were precleared by incubating with protein G-sepharose (Pharmacia, Uppsala, Sweden) at 4 °C for overnight, gently shaking. Supernatants were harvested by centrifugation at 1000 x g for 30 sec. at 4 °C and separated on 7 % SDS-polyacrylamide gel and transferred to nitrocellulose membrane. Blots were blocked for 1 hr at room temperature in PBS containing 5% skimmed milk and 0.1% Tween 20 under gentle shaking. Membranes were then incubated overnight with 1:1000 diluted monoclonal anti-PARP antibody (Pharmingen) under gentle shaking. […]

CC(C)[C@H](NC(=O)c1cccc2ccccc12)C1=NOC(Cc2ccccc2)(C(=O)N[C@@H](CC(=O)O)C(=O)COC(=O)c2c(Cl)cccc2Cl)C1 (stereo partly drawn) [Compound 33, (3S)-3-{3-[2-methyl-(1S)-1-(1-naphthalenecarbonylamino)-propyl]-5-phenylmethyl-4,5-dihydro-isoxazole-5-carbonylamino}-4-keto-5-(2,6-dichlorobenzoyloxy)-pentanoic acid]
apoptotic lesions in liver [1]: reduced dose-dependently | cellular histology of liver [1]: gradually recovered with increasing dose | AST and ALT activity, difference to Con A/vehicle group ([2]; 4mg/kg compound 33, second experiment (AST p=0.2972, ALT p=0.1378)): did not reached at statistically significant level | AST and ALT activities compared with ConA/vehicle group ([2]; 20 mg/kg compound 33 (AST p=0.0174, ALT p=0.0011)): definitely reduced | AST activity by the compound itself (liver toxicity) ([2]; compound alone without Con A, first experiment, not statistically significant (p=0.1033)): slightly increased AST activity by itself | serum AST and ALT activity elevated by ConA ([2]; i.p. twice, 1 hr before and 4h after Con A 20mg/kg i.v., blood at 24h, across doses): suppressed the elevated enzyme activities in a dose-dependent manner | inhibition of recombinant caspase activity [3]: almost completely inhibited all tested caspase activity, only except for caspase 2 | viability at 0.4 µM ([4]; Homo sapiens, WI-38, WI38 cells, Conc. 0.4 µM, read-out: viability ratio): 15.5% | viability at 2 µM ([4]; Homo sapiens, WI-38, WI38 cells, Conc. 2 µM, read-out: viability ratio): 64.4% | viability at 10 µM ([4]; Homo sapiens, WI-38, WI38 cells, Conc. 10 µM, read-out: viability ratio): 92.7% | viability at 50 µM ([4]; Homo sapiens, WI-38, WI38 cells, Conc. 50 µM, read-out: viability ratio): 100% | viability ratio ([4]; Conc. 50 µM, 50 µM): 100% | viability ratio ([4]; Conc. 50 µM, listed as Comp 33, 50 µM): 100.21% | PARP cleavage (85 kDa-cleavage product) caused by Con A-induced apoptotic death of hepatic cells [5]: gradually reduced as dose of compound 33 is increased
